# Assay results from patent US11939612B2, “Process for preparing sphingolipids” (Evonik Operations GmbH, priority 2018, dated 2024).
# Assays:
# [1] = Hair breakage measurement (Cyclic Tester), repair after acidic straightening; conditions: acid-straightened ethnic hair, test conditioner, 5 treatments, FIG. 3
# Description: Ethnic hair was acid-straightened and aftertreated with a conditioner that contained one of the claimed compositions with elevated triglyceride content, consisting of: 10% olive oil-based ceramide (Example 2). For comparison, the process was conducted with a corresponding amount of pure ceramide NG or pure olive oil.
# The repair effect and the boosting of the CMC complex by means of Hair fatigue alpha were measured.
# Ethnic hair was chemically straightened. For this purpose, an acidic standard formulation having a pH of about 1-2 was used in combination with the use of a straightening iron. Subsequently, the hair was treated as follows: • 1. Washing with a shampoo consisting of sodium lauryl ether sulfate and cocamidopropylbetaine. • 2. Application of the test conditioner; the contact time was 5 min. Subsequently, the hair tresses were rinsed under flowing tap water at a temperature of 37° C. for 1 min. • 3. Drying of the hair tresses with a hairdryer for 3 minutes.
# These three treatment steps were conducted a total of 5×. […]
# For quantification of the repair effect, a hair breakage measurement was conducted (Cyclic Tester, Diastron Limited, UK). […] The number of extension cycles survived is recorded and serves to calculate the probability of survival. […]
# [2] = Solubility temperature and crystal-free incorporation into cosmetic oils; format: physicochemical; conditions: for Appearance at RT: after cooling
# Description: For this purpose, the solubility temperatures of the sphingolipids were ascertained: A final concentration of 0.1% ceramide in cosmetic oil was chosen. The ceramide compositions were heated and stirred gradually in the cosmetic oils in a beaker on a hotplate. The solubility temperature was attained as soon as the solution was clear. Subsequently, the mixture was stirred at the solubility temperature ascertained for 1 hour. After it had cooled down to room temperature, the formulation was examined.
# [3] = 0.1% ceramide in Mineral Oil (non-polar)
# [4] = 0.1% ceramide in Octyldodecanol (polar)
# [5] = 0.1% ceramide in TEGOSOFT APM (polar)
# [6] = 0.1% ceramide in TEGOSOFT CT (polar-medium polar)
# [7] = 0.1% ceramide in TEGOSOFT M (medium polar)
# [8] = 0.1% ceramide in TEGOSOFT OS (non-polar)
"Solubility temperature [2, 3] [°C]","Appearance at RT [2, 3]","Solubility temperature [2, 4] [°C]","Appearance at RT [2, 4]","Solubility temperature [2, 5] [°C]","Appearance at RT [2, 5]","Solubility temperature [2, 6] [°C]","Appearance at RT [2, 6]","Solubility temperature [2, 7] [°C]","Appearance at RT [2, 7]","Solubility temperature [2, 8] [°C]","Appearance at RT [2, 8]",Substance,repair effect (probability of survival in the hair breakage test) [1]
–,–,–,–,–,–,–,–,–,–,–,–,ceramide NG,not able to achieve any repair effect
110,crystals,70,crystals,65,crystals,95,crystals,90,crystals,100,crystals,ceramide NP [Pure ceramide NP],–
